Laboratory results taken from patent US9375426B2, “Method of screening anti-plasmodial activity of acriflavin and acriflavin as an anti-malarial agent” (priority 2012, dated 2016).

Columns and labels:
[1] = tested on: malaria parasite in vitro; experiment: Anti-malarial property of Acriflavin vs Proflavin in vitro (parasitemia at end of first life cycle); type: cell-based, Plasmodium falciparum; conditions: 100 nM and 250 nM drug concentrations
Method: FIG. 1: Effect of Acriflavin on in vitro growth of 3D7 and W2 strains. Synchronized chloroquine susceptible 3D7 (A) and Chloroquine resistant W2 (B) parasites at ring stage (˜16-20 hrs) were treated with 20 nM to 100 nM of Acriflavin and parasitemia were counted at different time points (post-treatment) as indicated. (C) In each case, parasitemia were determined at the end of the first life cycle and plotted against different concentrations of Acriflavin/Proflavin. Each point/column represents the parasitemia of the mean of triplicates with standard deviations. […] Parasite growth inhibition was assessed by microscopy of giemsa stained smear at different time points as indicated.
Acriflavin is a mixture of 3,6-diamino-10-methylacridinium chloride (Trypflavin) and 3,6-diaminoacridine (Proflavin). […] After the Acriflavin treatment, the parasitemia was calculated in each case. Further, the anti-malarial property of Acriflavin vs Proflavin was also evaluated.
To determine the antimalarial activity of Acriflavin in vitro, synchronised ring stage, Chloroquine sensitive (3D7) and Chloroquine resistant (W2) P. falciparum (˜2.5% parasitemia) parasites were incubated with a range of Acriflavin concentrations (0-100 nM). After 40 hours of the Acriflavin treatment, the parasitemia was calculated in each case. […]

Plasmodium berghei = tested on: Plasmodium berghei
Method: FIG. 2: In vivo measurement of parasite killing ability of Acriflavin.
This is further described hereinafter as Example 3.
The mice were divided into three groups (each group had 4 mice). For four consecutive days, group I was injected subcutaneously with 5 mg Acriflavin/kg body weight; group II received 5 mg Chloroquine/kg body weight and the group III received no drug and served as control in this experiment. Every alternate day the parasitemia from the tail blood was calculated. […] The mouse groups were kept under observation for 3 weeks after the drug treatment.

Nc1ccc2cc3ccc(N)cc3nc2c1 [Proflavin, 3,6-diaminoacridine]
anti-malarial property against malaria parasite in vitro [1]: ineffective

CCN(CC)CCCC(C)Nc1ccnc2cc(Cl)ccc12 (stereo not shown) [Chloroquine]
parasitemia at the end of day 6 (Plasmodium berghei; 5 mg/kg body weight subcutaneously, four consecutive days, tail blood, untreated control 16%): 0.33%
survivability rate (Plasmodium berghei; 5 mg/kg s.c. for four days, 3 weeks observation after treatment, untreated control 25%): 75%

mixture of 3,6-diamino-10-methylacridinium chloride (Trypflavin) and 3,6-diaminoacridine (Proflavin) [Acriflavin]
drug-related effects on body weight or general condition of animals (Plasmodium berghei; mouse, in vivo): No drug-related effects
